Results reported in US12077503B2, “Substituted cyclic amides and their use as herbicides” (FMC CORPORATION, priority 2015, dated 2024).

Assays:
Type in all cases: in vivo
[1] = test system: giant foxtail (Setaria faberii); test: Test A preemergence; details: for Foxtail, Giant plant response rating (0 to 100 scale, 0 is no effect, 100 is complete control): visual injury approx. 10 d
Procedure, shortened: (§1)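 Greenhouse, ~10 d after spray; visual injury vs untreated controls, 0 = no effect, 100 = complete control. Preemergence: directed soil spray over planted seeds. Postemergence: plants 2–10 cm, 1–2 leaf stage. Loam/sand blend. Compound in non-phytotoxic solvent with surfactant.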

[2] = test system: ryegrass, Italian (Italian ryegrass, Lolium multiflorum); test: Test A preemergence; details: for Ryegrass, Italian plant response rating (0 to 100 scale, 0 is no effect, 100 is complete control): visual injury approx. 10 d
Procedure, shortened: as §1

[3] = test system: pigweed (Amaranthus retroflexus); test: Test A preemergence; details: for Pigweed plant response rating (0 to 100 scale, 0 is no effect, 100 is complete control): visual injury approx. 10 d
[4] = test system: barnyardgrass (Echinochloa crus-galli); test: Test A preemergence; details: for Barnyardgrass plant response rating (0 to 100 scale, 0 is no effect, 100 is complete control): visual injury approx. 10 d
Procedure, shortened: as §1

[5] = test system: ragweed (common ragweed, Ambrosia elatior); test: Test A preemergence; details: for Ragweed plant response rating (0 to 100 scale, 0 is no effect, 100 is complete control): visual injury approx. 10 d
Procedure, shortened: as §1

Kochia (Kochia scoparia) [6] = test: Test A preemergence; details: for Kochia plant response rating (0 to 100 scale, 0 is no effect, 100 is complete control): visual injury approx. 10 d
Procedure, shortened: as §1

[7] = test system: ducksalad (Heteranthera limosa); test: Test B flooded paddy test; details: Flood, 0 to 100 scale where 0 is no effect and 100 is complete control, 13 to 15 d
Procedure, shortened: (§2)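 2-leaf plants; pots flooded 3 cm over soil; cpd added to paddy water; depth held; greenhouse 13–15 d; visual rating vs controls, 0 = no effect, 100 = complete control.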

[8] = test system: barnyardgrass (Echinochloa crus-galli); test: Test B flooded paddy test; details: Flood, 0 to 100 scale where 0 is no effect and 100 is complete control, 13 to 15 d
Procedure, shortened: as §2

[9] = test system: sedge, umbrella (small-flower umbrella sedge, Cyperus difformis); test: Test B flooded paddy test; details: Flood, 0 to 100 scale where 0 is no effect and 100 is complete control, 13 to 15 d
Procedure, shortened: as §2

rice (Oryra sativa) = test: Test B flooded paddy test; details: Flood, 0 to 100 scale where 0 is no effect and 100 is complete control, 13 to 15 d
Procedure, shortened: as §2

[10] = test system: Galium (catchweed bedstraw, Galium aparine); test: Test A postemergence
Procedure, shortened: as §1

[11] = test system: giant foxtail (Setaria faberii); test: Test A postemergence
Procedure, shortened: as §1

corn (Zea mays) = test: Test A postemergence
Procedure, shortened: as §1

[12] = test system: ryegrass, Italian (Italian ryegrass, Lolium multiflorum); test: Test A postemergence
Procedure, shortened: as §1

[13] = test system: blackgrass (Alopecurus myosuroides); test: Test A postemergence; details: for Blackgrass plant response rating: visual injury rating on 0 to 100 scale (0 no effect, 100 complete control)
Procedure, shortened: as §1

[14] = test system: pigweed (Amaranthus retroflexus); test: Test A postemergence
Procedure, shortened: as §1

[15] = test system: barnyardgrass (Echinochloa crus-galli); test: Test A postemergence; details: for Barnyardgrass plant response rating: visual injury rating on 0 to 100 scale (0 no effect, 100 complete control)
Procedure, shortened: as §1

[16] = test system: ragweed (common ragweed, Ambrosia elatior); test: Test A postemergence
Procedure, shortened: as §1

[17] = test system: wheat (Triticum aestivum); test: Test A postemergence
Procedure, shortened: as §1

Kochia (Kochia scoparia) [18] = test: Test A postemergence
Procedure, shortened: as §1

[19] = 125 g ai/ha, preemergence, 0 to 100 scale (0 no effect, 100 complete control)
[20] = 125 g ai/ha, Preemergence, visual injury after approximately 10 d, 0 to 100 scale where 0 is no effect and 100 is complete control
[21] = 125 g ai/ha, postemergence, visual injury rating on 0 to 100 scale (0 no effect, 100 complete control), approx. 10 d
[22] = Postemergence, 500 g ai/ha, 0 to 100 scale where 0 is no effect and 100 is complete control
[23] = 500 g ai/ha, postemergence, 0 to 100 scale, 0 no effect, 100 complete control
[24] = 125 g ai/ha, postemergence, approx. 10 d
[25] = 125 g ai/ha, postemergence, visual rating after approx. 10 d, 0 to 100 scale (0 no effect, 100 complete control)
[26] = 125 g ai/ha, preemergence, visual rating after approx. 10 d, 0 to 100 scale where 0 is no effect and 100 is complete control
[27] = 500 g ai/ha, preemergence, 0 to 100 scale, 0 = no effect, 100 = complete control
[28] = 125 g ai/ha, postemergence, visual injury after approximately 10 d, 0 to 100 scale (0 no effect, 100 complete control)
[29] = 500 g ai/ha, postemergence, visual injury, 0 to 100 scale (0 no effect, 100 complete control), approx. 10 d

In the case of `CC(C)=CCN1CC(c2cccc(C(F)(F)F)c2)C(C(=O)Nc2cccc(F)c2F)C1=O` (stereo not drawn) [Compound 477], the “Plant response rating, Foxtail, Giant” value [1, 19] is reported as 90, the “Foxtail, Giant plant response rating (0 to 100 scale, 0 is no effect, 100 is complete control)” value ([1]; Preemergence, 500 g ai/ha) is reported as 90 and the “Plant response rating, Ryegrass, Italian” value [2, 20] is reported as 0. The “Ryegrass, Italian plant response rating (0 to 100 scale, 0 is no effect, 100 is complete control)” value ([2]; Preemergence, 500 g ai/ha) was 0, the “Plant response rating, Pigweed” value [3, 20] was 0 and the “Pigweed plant response rating (0 to 100 scale, 0 is no effect, 100 is complete control)” value ([3]; Preemergence, 500 g ai/ha) was 0. For the same compound, the “Plant response rating, Barnyardgrass” value [4, 19] was 20, the “Barnyardgrass plant response rating (0 to 100 scale, 0 is no effect, 100 is complete control)” value ([4]; Preemergence, 500 g ai/ha) was 90 and the “Plant response rating, Ragweed” value [5, 20] was 0. For the same compound, the “Ragweed plant response rating (0 to 100 scale, 0 is no effect, 100 is complete control)” value ([5]; Preemergence, 500 g ai/ha) was 0, the “Plant response rating, Kochia” value (Kochia (Kochia scoparia) [6]; [19]) was 0 and the “Kochia plant response rating (0 to 100 scale, 0 is no effect, 100 is complete control)” value (Kochia (Kochia scoparia) [6]; Preemergence, 500 g ai/ha) was 0. For the same compound, the “Plant response rating, Ducksalad” value ([7]; 250 g ai/ha) was 0, the “Plant response rating, Barnyardgrass” value ([8]; 250 g ai/ha) was 0 and the “Plant response rating, Sedge, Umbrella” value ([9]; 250 g ai/ha) was 0. For the same compound, the “Plant response rating, Rice” value (rice (Oryra sativa); 250 g ai/ha) was 0, the “Galium plant response rating” value [10, 21] was 0 and the “Plant response rating, Galium” value [10, 22] was 0. The “Foxtail, Giant plant response rating” value [11, 21] was 40, the “Plant response rating, Foxtail, Giant” value [11, 22] was 70 and the “Corn plant response rating” value (corn (Zea mays); [21]) was 0. The “Plant response rating, Corn” value (corn (Zea mays); [23]) was 40, the “Ryegrass, Italian plant response rating” value [12, 21] was 0 and the “Plant response rating, Ryegrass, Italian” value [12, 22] was 0. For the same compound, the “Blackgrass plant response rating” value [13, 24] was 0, the “Plant response rating, Blackgrass” value [13, 23] was 30 and the “Pigweed plant response rating” value [14, 21] was 0. For the same compound, the “Plant response rating, Pigweed” value [14, 22] was 0, the “Barnyardgrass plant response rating” value [15, 24] was 40 and the “Plant response rating, Barnyardgrass” value [15, 23] was 70. For the same compound, the “Ragweed plant response rating” value [16, 21] was 0, the “Plant response rating, Ragweed” value [16, 22] was 0 and the “Wheat plant response rating” value [17, 21] was 0. The “Plant response rating, Wheat” value [17, 22] was 40, the “Kochia plant response rating” value (Kochia (Kochia scoparia) [18]; [21]) was 0 and the “Plant response rating, Kochia” value (Kochia (Kochia scoparia) [18]; [22]) was 0.
In the case of `O=C1NCC(c2ccc(Oc3ccccc3)cc2)C1C(=O)Nc1ccccc1Cl` (racemic) [Compound 538], the “Plant response rating, Foxtail, Giant” value [1, 20] is reported as 0, the “Foxtail, Giant plant response rating (0 to 100 scale, 0 is no effect, 100 is complete control)” value ([1]; Preemergence, 500 g ai/ha) is reported as 0 and the “Plant response rating, Ryegrass, Italian” value [2, 20] is reported as 0. For the same compound, the “Ryegrass, Italian plant response rating (0 to 100 scale, 0 is no effect, 100 is complete control)” value ([2]; Preemergence, 500 g ai/ha) was 0, the “Plant response rating, Pigweed” value [3, 20] was 0 and the “Pigweed plant response rating (0 to 100 scale, 0 is no effect, 100 is complete control)” value ([3]; Preemergence, 500 g ai/ha) was 0. The “Plant response rating, Barnyardgrass” value [4, 20] was 0, the “Barnyardgrass plant response rating (0 to 100 scale, 0 is no effect, 100 is complete control)” value ([4]; Preemergence, 500 g ai/ha) was 0 and the “Plant response rating, Ragweed” value [5, 20] was 0. The “Ragweed plant response rating (0 to 100 scale, 0 is no effect, 100 is complete control)” value ([5]; Preemergence, 500 g ai/ha) was 0, the “Plant response rating, Kochia” value (Kochia (Kochia scoparia) [6]; [20]) was 0 and the “Kochia plant response rating (0 to 100 scale, 0 is no effect, 100 is complete control)” value (Kochia (Kochia scoparia) [6]; Preemergence, 500 g ai/ha) was 0. For the same compound, the “Plant response rating, Ducksalad” value ([7]; 500 g ai/ha) was 0, the “Plant response rating, Barnyardgrass” value ([8]; 500 g ai/ha) was 0 and the “Plant response rating, Sedge, Umbrella” value ([9]; 500 g ai/ha) was 0. The “Plant response rating, Rice” value (rice (Oryra sativa); 500 g ai/ha) was 0, the “Plant response rating, Galium” value [10, 25] was 0 and the “Plant response rating, Galium” value [10, 22] was 0. For the same compound, the “Plant response rating, Foxtail, Giant” value [11, 25] was 0, the “Plant response rating, Foxtail, Giant” value [11, 22] was 0 and the “Plant response rating, Corn” value (corn (Zea mays); [25]) was 0. The “Plant response rating, Corn” value (corn (Zea mays); [22]) was 0, the “Plant response rating, Ryegrass, Italian” value [12, 25] was 0 and the “Plant response rating, Ryegrass, Italian” value [12, 22] was 0. For the same compound, the “Blackgrass plant response rating” value [13, 24] was 0, the “Plant response rating, Blackgrass” value [13, 22] was 0 and the “Plant response rating, Pigweed” value [14, 25] was 0. For the same compound, the “Plant response rating, Pigweed” value [14, 22] was 0, the “Barnyardgrass plant response rating” value [15, 24] was 0 and the “Plant response rating, Barnyardgrass” value [15, 22] was 0. For the same compound, the “Plant response rating, Ragweed” value [16, 25] was 0, the “Plant response rating, Ragweed” value [16, 22] was 0 and the “Plant response rating, Wheat” value [17, 25] was 0. For the same compound, the “Plant response rating, Wheat” value [17, 22] was 0, the “Plant response rating, Kochia” value (Kochia (Kochia scoparia) [18]; [25]) was 0 and the “Plant response rating, Kochia” value (Kochia (Kochia scoparia) [18]; [22]) was 0.
In the case of `CC(=O)c1ccccc1NC(=O)C1C(=O)NCC1c1cccc(C(F)(F)F)c1` (racemic) [Compound 706], the “Plant response rating, Foxtail, Giant” value [1, 26] is reported as 0, the “Plant response rating, Foxtail, Giant” value [1, 27] is reported as 80 and the “Plant response rating, Ryegrass, Italian” value [2, 26] is reported as 0. The “Plant response rating, Ryegrass, Italian” value [2, 27] was 0, the “Plant response rating, Pigweed” value [3, 26] was 0 and the “Plant response rating, Pigweed” value [3, 27] was 0. For the same compound, the “Plant response rating, Barnyardgrass” value [4, 26] was 0, the “Plant response rating, Barnyardgrass” value [4, 27] was 70 and the “Plant response rating, Ragweed” value [5, 26] was 0. For the same compound, the “Plant response rating, Ragweed” value [5, 27] was 0, the “Plant response rating, Kochia” value (Kochia (Kochia scoparia) [6]; [26]) was 0 and the “Plant response rating, Kochia” value (Kochia (Kochia scoparia) [6]; [27]) was 0. The “Plant response rating, Ducksalad” value ([7]; 500 g ai/ha) was 0, the “Plant response rating, Barnyardgrass” value ([8]; 500 g ai/ha) was 0 and the “Plant response rating, Sedge, Umbrella” value ([9]; 500 g ai/ha) was 0. For the same compound, the “Plant response rating, Rice” value (rice (Oryra sativa); 500 g ai/ha) was 15, the “Plant response rating, Galium” value [10, 28] was 0 and the “Plant response rating, Galium” value [10, 29] was 0. The “Plant response rating, Foxtail, Giant” value [11, 28] was 0, the “Plant response rating, Foxtail, Giant” value [11, 29] was 30 and the “Plant response rating, Corn” value (corn (Zea mays); [28]) was 0. For the same compound, the “Plant response rating, Corn” value (corn (Zea mays); [29]) was 0, the “Plant response rating, Ryegrass, Italian” value [12, 28] was 0 and the “Plant response rating, Ryegrass, Italian” value [12, 29] was 0. The “Plant response rating, Blackgrass” value [13, 28] was 0, the “Plant response rating, Blackgrass” value [13, 29] was 0 and the “Plant response rating, Pigweed” value [14, 28] was 0. For the same compound, the “Plant response rating, Pigweed” value [14, 29] was 0, the “Plant response rating, Barnyardgrass” value [15, 28] was 0 and the “Plant response rating, Barnyardgrass” value [15, 29] was 50. The “Plant response rating, Ragweed” value [16, 28] was 0, the “Plant response rating, Ragweed” value [16, 29] was 0 and the “Plant response rating, Wheat” value [17, 28] was 0. The “Plant response rating, Wheat” value [17, 29] was 0, the “Plant response rating, Kochia” value (Kochia (Kochia scoparia) [18]; [28]) was 0 and the “Plant response rating, Kochia” value (Kochia (Kochia scoparia) [18]; [29]) was 0.
